{"source": "paper PMC6737591", "about": "“Abstracts from the 22nd International Symposium on Signal Transduction at the Blood–Brain Barriers” (Fluids and Barriers of the CNS, 2019)", "key": {"[1]": {"system": "murine brain microvascular endothelial cells (MBMECs)", "assay": "NMDAR modulators on brain endothelial cells (electrophysiology, Ca2+, TEER, migration)", "assay_type": "cell-based", "conditions": "for NMDAR mediated current: whole cell recorded MBMECs, compared to control conditions", "source_text": "In neurodegenerative disorders, concentrations of extracellular neurotransmitter in the central nervous system (CNS) are out of balance. Glutamatergic dysregulation and extracellular glycine accumulation cause excitotoxicity and subsequent neuronal death. This process is largely mediated by N-methyl-D-aspartate receptor (NMDAR) activation. NMDARs are ionotropic receptors permeable for positive ions. In the CNS, they are composed by two obligatory NR1 subunits containing glycine binding sites and two NR2 subunits that are activated by glutamate. NR3 subunits which are less abundant in the CNS are activated by glycine. While neuronal NMDARs are well studied, their functional role on endothelial cells (ECs) is still to be investigated. ECs of the Blood Brain Barrier (BBB) are exposed to the extracellular milieu of the CNS and therefore to high concentrations of neurotransmitters. In this study, we investigated the effect of NMDAR modulators on murine brain microvascular endothelial cells (MBMECs)."}, "[2]": {"assay": "Chemical stability in cell media supplemented with 10% FBS by UPLC", "assay_type": "in vitro ADME", "conditions": "for % of initial remained intact: UPLC, cell media supplemented with 10% FBS, 4 h incubation, fluorophore-labelled constructs", "source_text": "All constructs were stable in PBS."}, "[3]": {"system": "astrocytes", "assay": "Uptake in astrocytes cultured on the basolateral (brain) side", "assay_type": "cell-based", "conditions": "rat astrocytes below bovine brain endothelial cells; fluorophore-labelled", "protocol": "The propensity of Tat to facilitate brain endothelial cell adherence -and uptake as well as BBB permeation of NR2B9c and the N-dimer was assessed using primary bovine brain endothelial cells cultured in contact with rat astrocytes4."}, "[4]": {"target": "T1, Creatine transporter (CRT) (Homo sapiens, UniProt P48029)", "T1 sequence (P48029 1-635)": "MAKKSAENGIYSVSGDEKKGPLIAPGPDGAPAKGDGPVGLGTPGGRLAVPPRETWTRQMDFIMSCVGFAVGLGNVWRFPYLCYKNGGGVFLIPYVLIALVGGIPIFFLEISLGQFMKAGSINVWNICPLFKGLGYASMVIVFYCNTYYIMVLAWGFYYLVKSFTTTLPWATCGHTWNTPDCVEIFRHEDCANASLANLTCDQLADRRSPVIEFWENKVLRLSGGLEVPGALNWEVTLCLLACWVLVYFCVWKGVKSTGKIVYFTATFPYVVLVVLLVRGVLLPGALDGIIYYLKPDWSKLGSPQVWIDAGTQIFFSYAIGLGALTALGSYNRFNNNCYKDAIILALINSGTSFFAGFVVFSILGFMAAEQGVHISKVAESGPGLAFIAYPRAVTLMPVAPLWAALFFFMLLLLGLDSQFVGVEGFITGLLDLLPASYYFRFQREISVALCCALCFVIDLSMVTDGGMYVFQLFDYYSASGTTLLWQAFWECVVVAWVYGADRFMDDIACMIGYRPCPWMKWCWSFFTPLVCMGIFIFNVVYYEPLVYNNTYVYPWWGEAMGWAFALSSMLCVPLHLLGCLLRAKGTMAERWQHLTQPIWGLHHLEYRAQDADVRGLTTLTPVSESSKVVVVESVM", "assay": "[14C]cyclocreatine / [14C]creatine uptake by hCMEC/D3 cells", "assay_type": "cell-based", "set-up": "hCMEC/D3 cells, which are immortalized human brain microvascular endothelial cells; endogenous in cells; host or cells: hCMEC/D3 cells", "conditions": "for inhibition of uptake by CRT-targeting siRNA: CRT mRNA expression reduced by 97%, substrate 9 µM; for suppression of [14C]cyclocreatine uptake: [14C]cyclocreatine 9 µM, 37 °C", "description": "(§1) Methods: Cells were incubated with [14C]cyclocreatine (9 µM) and [14C]creatine (9 µM) for the indicated times at 37 °C in the presence or absence of several compounds. siRNAs were transfected by lipofection. Protein and mRNA expressions were quantified by LC–MS/MS and qPCR, respectively."}, "[5]": {"target": "T1, Creatine transporter (CRT)", "assay": "[14C]cyclocreatine / [14C]creatine uptake by HEK293 cells", "assay_type": "cell-based", "set-up": "endogenous in cells; host or cells: HEK293 cells", "conditions": "for inhibition of uptake by CRT-targeting siRNA: CRT protein expression reduced by 42%, substrate 9 µM", "description": "as §1"}, "[6]": {"system": "Rat primary brain endothelial, pericyte and astroglial cell cultures", "assay": "Kainate damage and drug protection in BBB culture model", "source_text": "In animal models of epilepsy induced by kainic acid, the primary ligand of ionotropic kainate receptors, BBB damage occurs, but the effect of kainate on brain endothelial cells has not been studied. Our aim was to examine the presence of kainate receptors and the effects of kainate on cultured cells of the BBB and to test anti-inflammatory and antioxidant drugs to protect against kainate-induced changes. Rat primary brain endothelial, pericyte and astroglial cell cultures were used to study cell viability by impedance measurement and cell morphology. BBB permeability was measured on a model made from the three cell types. The production of nitrogen monoxide and reactive oxygen species was followed by fluorescent probes. Four drugs were tested to protect against kainate-induced changes. The mRNA expression of kainate receptors and nitric oxide synthases (NOS) were studied by RT-PCR."}, "[7]": {"system": "primary mouse brain microvascular endothelial cells (pMBMECs)", "assay": "Effector OT-I CD8+ T-cell interaction with antigen-pulsed pMBMECs under physiological flow", "assay_type": "cell-based", "conditions": "SIINFEKL and MHC class I on WT pMBMECs", "source_text": "Methods and results: We used primary mouse brain microvascular endothelial cells (pMBMECs) as an in vitro model for BBB. […] We next investigated, if naive CD8+ T cells can interact with pMBMECs under physiological flow. […] This prompted us to investigate how endothelial Ag-presentation contributes to the interaction of effector OT-I CD8+ T-cells with pMBMECs under physiological flow."}, "[8]": {"system": "transgenic hAPP mice", "assay": "PCN or NAC purified diet in transgenic hAPP mice", "assay_type": "in vivo", "source_text": "Methods: To test our hypothesis, transgenic hAPP mice received a purified diet containing the PXR activator pregnenolone 16α-carbonitrile (PCN) or the ROS scavenger N-acetyl-L-cysteine (NAC). We assessed P-gp protein expression and transport activity, Aβ brain and plasma levels, capillary leakage, renal function and cognition to test the PCN or NAC effect in hAPP mice."}, "[9]": {"substrate": "NC1=NCCN1CC(=O)O", "assay": "[14C]cyclocreatine / [14C]creatine uptake by HEK293 cells", "assay_type": "cell-based", "conditions": "other: HEK293 cells, 37 °C, saturable kinetics", "description": "as §1"}, "[10]": {"conditions": "12-month old mice treated for 3 weeks"}}, "data": [{"molecule": "O=C(O)c1cccnc1C(=O)O", "note": "[quinolinic acid]", "values": [{"measurement": "transendothelial electrical resistance (TEER)", "setting": "[1]; MBMECs", "value": "No changes"}, {"measurement": "NMDAR mediated current", "setting": "[1]", "value": "did neither evoke any"}]}, {"molecule": "NR2B9c: clinically relevant peptide drug entity (1 kDa) (KLSSIESDV; UniProt Q13224 1476-1484, looked up, fragment)", "values": [{"measurement": "% of initial remained intact", "setting": "[2]", "value": "~ 90%"}, {"measurement": "uptake in astrocytes cultured on the basolateral (brain) side", "setting": "[3]", "value": "not"}]}, {"molecule": "CN(CC(=O)O)C(=N)N", "note": "[creatine]", "values": [{"measurement": "inhibition of uptake by CRT-targeting siRNA", "setting": "[4]", "value": 63, "unit": "%"}, {"measurement": "suppression of [14C]cyclocreatine uptake", "setting": "[4]", "value": 91, "unit": "%"}, {"measurement": "inhibition at 10000 µM", "setting": "[5]; HEK293, read-out: inhibition of [14C]cyclocreatine uptake", "value": 97, "unit": "%"}, {"measurement": "inhibition of uptake by CRT-targeting siRNA", "setting": "[5]; HEK293 cells", "value": 37, "unit": "%"}]}, {"molecule": "Tat: 11-residue cationic peptide, tool to facilitate delivery of peptide drug entities into cells and across barriers", "values": [{"measurement": "% of initial remained intact", "setting": "[2]", "value": "~ 50%"}, {"measurement": "integrity in cell media (in words)", "setting": "[2]; cell media, conclusion statement", "value": "extensive degradation"}, {"measurement": "uptake in astrocytes cultured on the basolateral (brain) side", "setting": "[3]", "value": "observed"}]}, {"molecule": "CC1=NN(c2ccccc2)C(=O)C1", "note": "[edaravone]", "values": [{"measurement": "protection against the reduced cell viability and increased permeability caused by kainate", "setting": "[6]; kainate-treated cells / BBB model", "value": "protected"}]}, {"molecule": "N[C@@H](CCC(=O)O)C(=O)O", "note": "[glutamate]", "values": [{"measurement": "transendothelial electrical resistance (TEER)", "setting": "[1]; MBMECs", "value": "No changes"}, {"measurement": "NMDAR mediated current", "setting": "[1]", "value": "did neither evoke any"}]}, {"molecule": "NC(N)=NCCC(=O)O", "note": "[GPA, guanidinopropionic acid]", "values": [{"measurement": "suppression of [14C]cyclocreatine uptake", "setting": "[4]", "value": 91, "unit": "%"}, {"measurement": "inhibition of [14C]cyclocreatine uptake", "setting": "[5]; HEK293 cells, inhibitor 10 mM, [14C]cyclocreatine 9 µM, 37 °C", "value": 96, "unit": "%"}]}, {"molecule": "SIINFEKL [cognate peptide antigen for OT-I CD8+ T cells]", "values": [{"measurement": "T-cell crawling", "setting": "[7]", "value": "prohibited"}, {"measurement": "T-cell migration rates", "setting": "[7]", "value": "decreased"}]}, {"molecule": "CC(=O)N[C@@H](CS)C(=O)O", "note": "[NAC, N-acetyl-L-cysteine]", "values": [{"measurement": "barrier leakage", "setting": "[8]; [10]", "value": "reduced"}, {"measurement": "renal function", "setting": "[8]; [10]", "value": "improved"}]}, {"molecule": "C=C(C)[C@H]1CN[C@H](C(=O)O)[C@H]1CC(=O)O", "note": "[Kainate, kainic acid]", "values": [{"measurement": "production of nitric oxide (NO) in brain endothelial cells", "setting": "[6]; fluorescent probes", "value": "increased"}, {"measurement": "viability or morphology of astroglial cells", "setting": "[6]; rat primary astroglial cells", "value": "unchanged"}, {"measurement": "effect on brain endothelial cells (viability by impedance)", "setting": "[6]; rat primary brain endothelial cells, concentration- and time-dependent", "value": "damaged"}]}, {"molecule": "NCC(=O)O", "note": "[glycine]", "values": [{"measurement": "MBMEC migration", "setting": "[1]; MBMECs", "value": "impaired"}, {"measurement": "intracellular Ca2+ levels", "setting": "[1]; MBMECs", "value": "increase"}, {"measurement": "transendothelial electrical resistance (TEER)", "setting": "[1]; MBMECs", "value": "reduced"}, {"measurement": "NMDAR mediated current", "setting": "[1]", "value": "bigger"}]}, {"molecule": "NC1=NCCN1CC(=O)O", "note": "[[14C]cyclocreatine, cyclocreatine]", "values": [{"measurement": "inhibition of uptake by CRT-targeting siRNA", "setting": "[4]", "value": 70, "unit": "%"}, {"measurement": "inhibition of uptake by CRT-targeting siRNA", "setting": "[5]; HEK293 cells", "value": 33, "unit": "%"}]}, {"molecule": "CC(=O)[C@H]1[C@H](C#N)C[C@H]2[C@@H]3CC=C4C[C@@H](O)CC[C@]4(C)[C@H]3CC[C@@]21C", "note": "[PCN, pregnenolone 16α-carbonitrile]", "values": [{"measurement": "Aβ brain levels", "setting": "[8]; hAPP mice fed for 21 months", "value": "lowered"}, {"measurement": "P-gp protein expression and transport activity", "setting": "[8]; hAPP mice fed for 21 months", "value": "restored"}, {"measurement": "cognition", "setting": "[8]; hAPP mice fed for 21 months", "value": "improved"}]}, {"molecule": "Creatine transporter (CRT) (Homo sapiens) (protein, endogenous in cells; host or cells: HEK293 cells) MAKKSAENGIYSVSGDEKKGPLIAPGPDGAPAKGDGPVGLGTPGGRLAVPPRETWTRQMDFIMSCVGFAVGLGNVWRFPYLCYKNGGGVFLIPYVLIALVGGIPIFFLEISLGQFMKAGSINVWNICPLFKGLGYASMVIVFYCNTYYIMVLAWGFYYLVKSFTTTLPWATCGHTWNTPDCVEIFRHEDCANASLANLTCDQLADRRSPVIEFWENKVLRLSGGLEVPGALNWEVTLCLLACWVLVYFCVWKGVKSTGKIVYFTATFPYVVLVVLLVRGVLLPGALDGIIYYLKPDWSKLGSPQVWIDAGTQIFFSYAIGLGALTALGSYNRFNNNCYKDAIILALINSGTSFFAGFVVFSILGFMAAEQGVHISKVAESGPGLAFIAYPRAVTLMPVAPLWAALFFFMLLLLGLDSQFVGVEGFITGLLDLLPASYYFRFQREISVALCCALCFVIDLSMVTDGGMYVFQLFDYYSASGTTLLWQAFWECVVVAWVYGADRFMDDIACMIGYRPCPWMKWCWSFFTPLVCMGIFIFNVVYYEPLVYNNTYVYPWWGEAMGWAFALSSMLCVPLHLLGCLLRAKGTMAERWQHLTQPIWGLHHLEYRAQDADVRGLTTLTPVSESSKVVVVESVM", "values": [{"measurement": "Km", "setting": "[9]", "value": 188, "unit": "µM"}, {"measurement": "Vmax", "setting": "[9]", "value": 273, "unit": "pmol/mg protein/min"}]}]}
